How the values were obtained:
wild type murine p97 = wild type murine p97 (Mus musculus, UniProt Q01853); experiment: In vitro ATP hydrolysis (malachite green ATPase assay), wild type murine p97; format: biochemical; conditions: 200 nM p97, 20 min preincubation at 23° C., malachite green; read-out: In vitro ATP Hydrolysis Activity IC50 WT-mP97
Protocol: Compounds were tested for their ability to inhibit the ATPase activity of purified wild type murine p97 and T532C-Cdc48, a mutant of yeast Cdc48 in which the residue analogous to cysteine 522, threonine 532, was converted to cysteine.

13 different cell lines = experiment: MTT cell growth assay, summary across 13 different cell lines; format: cell-based; conditions: vs compound 2, 13 cell lines
Protocol: (§1) To probe further the effect of compound 2 and related compounds 1, 3, 5, 6 and 7, various concentrations of these compounds were added to 13 different cell lines and incubated for 48 or 72 h. An MTT assay was then performed to evaluate cell growth and survival.
Data for the assay with MCF-7 cells and HeLa cells is shown in FIG. 21 and FIG. 22, respectively. […] Thus, compound 2 blocks p97-dependent processes in cells and also blocks the proliferation of cancer cell lines, illustrating its potential utility as an anti-proliferative drug to treat cancer.

RL = experiment: MTT cell growth assay, RL; format: cell-based; conditions: Homo sapiens, 48 or 72 h, read-out: Cell line inhibition of growth GI50 RL
Protocol: as §1

Molt4 = experiment: MTT cell growth assay, Molt4; format: cell-based; conditions: Homo sapiens, MOLT-4, 48 or 72 h, read-out: Cell line inhibition of growth GI50 Molt4
Protocol: as §1

PC3 = experiment: MTT cell growth assay, PC3; format: cell-based; conditions: Homo sapiens, PC-3, 48 or 72 h, read-out: Cell line inhibition of growth GI50 PC3
Protocol: as §1

HTC116 WT = experiment: MTT cell growth assay, HTC116 WT; format: cell-based; conditions: 48 or 72 h, read-out: Cell line inhibition of growth GI50 HTC116 WT
Protocol: as §1

RPMI8226 = experiment: MTT cell growth assay, RPMI8226; format: cell-based; conditions: Homo sapiens, RPMI-8226, 48 or 72 h, read-out: Cell line inhibition of growth GI50 RPMI8226
Protocol: as §1

MDAMB-231 = experiment: MTT cell growth assay, MDAMB-231; format: cell-based; conditions: Homo sapiens, MDA-MB-231, 48 or 72 h, read-out: Cell line inhibition of growth GI50 MDAMB-231
Protocol: as §1

HCT116 p53−/− = experiment: MTT cell growth assay, HCT116 p53−/−; format: cell-based; conditions: Homo sapiens, HCT-116, 48 or 72 h, read-out: Cell line inhibition of growth GI50 HCT116 p53−/−
Protocol: as §1

HeLa = experiment: MTT cell growth assay, HeLa; format: cell-based; conditions: Homo sapiens, 48 or 72 h, read-out: Cell line inhibition of growth GI50 HeLa
Protocol: as §1

RPMI8226 cells = experiment: Accumulation of high molecular weight ubiquitin conjugates (anti-ubiquitin immunoblot), RPMI8226 cells; format: cell-based; conditions: 1 h at 37° C.
From the text: (§2) To evaluate whether compound 2 can target p97 activity in cells, we sought to determine whether this compound induces accumulation of high molecular weight ubiquitin conjugates, since it is known that RNAi-mediated knockdown of p97 in mammalian cells has this effect (Wojcik, C. et al. J. Cell Sci. (2004) 117, 281-292). As a positive control for this experiment, the proteasome inhibitor MG132 was used. […] The cells were then harvested, lysed, and centrifuged to generate soluble and insoluble fractions. These fractions were then immunoblotted with anti-ubiquitin antibodies to detect accumulation of high molecular weight conjugates. Blots were also probed with anti-PSTAIRE antibodies as a loading control. […] This effect is particularly pronounced in the insoluble fraction.
(§3) To evaluate whether compound 8 can target p97 activity in cells, it was determined whether this compound induces accumulation of high molecular weight ubiquitin conjugates, since it is known that RNAi-mediated knockdown of p97 in mammalian cells has this effect (Wojcik, C. et al. J. Cell Sci. (2004) 117, 281-292). The proteasome inhibitor bortezomib (velcade) was employed as a positive control for this experiment. HeLa (FIG. 25) or RPMI8226 (FIG. 26) cells were treated with Velcade, compound 8, or a combination thereof for 1 h at 37° C. The cells were then harvested and cell lysates were immunoblotted with anti-ubiquitin antibodies to detect accumulation of high molecular weight conjugates. Blots were also probed with anti-PSTAIRE antibodies as a loading control.

MCF7 = experiment: MTT cell growth assay, MCF7; format: cell-based; conditions: Homo sapiens, 48 or 72 h, read-out: Cell line inhibition of growth GI50 MCF7
Protocol: as §1

CCRF-CEM = experiment: MTT cell growth assay, CCRF-CEM; format: cell-based; conditions: Homo sapiens, 48 or 72 h, read-out: Cell line inhibition of growth GI50 CCRF-CEM
Protocol: as §1

LNCaP = experiment: MTT cell growth assay, LNCaP; format: cell-based; conditions: Homo sapiens, 48 or 72 h, read-out: Cell line inhibition of growth GI50 LNCaP
Protocol: as §1

Ub-G76V-GFP/HeLa cells = experiment: Degradation of pre-accumulated Ub-G76V-GFP (cycloheximide chase after MG132 washout); format: cell-based; conditions: for % K: relative to 0 μM
Protocol: To evaluate this possibility, an assay was developed to determine the rate of degradation of pre-accumulated Ub-G76V-GFP molecules. […] Cells were then washed with PBS three times remove the MG132. Cells were then refreshed by adding DMEM containing cycloheximide (50 μg/mL; to block production of more Ub-G76V-GFP) and test compounds (0˜10 μM) were added into cells. Eight 96-well plates were prepared and one of the plates was imaged at 25, 50, 70, 100, 110, 125, 145, or 170 min after washing with PBS three times. After washing out MG132, degradation of pre-accumulated Ub-G76V-GFP appears to follow pseudo-first order reaction. Rate constant (K; 1/min) can be determined from the slope of plotting Ln (Fold Accumulation) versus Time (min) (see FIG. 17 and FIG. 18).
Ub-G76V-GFP/HeLa cells were treated with MG132 (2 μM) for 1 h and washed with PBS three times. DMEM containing cycloheximide (50 μg/mL) and compound 8 (0-10 μM) was added into cells. Eight 96-well plates were prepared and one of the plates was imaged at 25, 50, 70, 100, 110, 125, 145, or 170 min after washing with PBS three times.

DU145 = experiment: MTT cell growth assay, DU145; format: cell-based; conditions: Homo sapiens, DU-145, 48 or 72 h, read-out: Cell line inhibition of growth GI50 DU145
Protocol: as §1

HeLa cells = experiment: Accumulation of high molecular weight ubiquitin conjugates (anti-ubiquitin immunoblot), HeLa cells; format: cell-based; conditions: 1 h at 37° C.
From the text: as §2, §3

293 = experiment: MTT cell growth assay, 293; format: cell-based; conditions: Homo sapiens, HEK293, 48 or 72 h, read-out: Cell line inhibition of growth GI50 293
Protocol: as §1

MRC5-WT = experiment: CellTiter-Glo growth inhibition, parental MRC5 cells; format: cell-based; conditions: Homo sapiens, 48 h at 37° C., read-out: Cell line inhibition of growth GI50 MRC5-WT
MRC5-SV40 = experiment: CellTiter-Glo growth inhibition, MRC5 cells engineered to express SV40; format: cell-based
wild type p97 = wild type p97 (Mus musculus, UniProt Q01853); experiment: ATP Kinase glo assay of p97 ATPase activity; format: biochemical
Sequence of wild type p97 (Q01853 whole entry): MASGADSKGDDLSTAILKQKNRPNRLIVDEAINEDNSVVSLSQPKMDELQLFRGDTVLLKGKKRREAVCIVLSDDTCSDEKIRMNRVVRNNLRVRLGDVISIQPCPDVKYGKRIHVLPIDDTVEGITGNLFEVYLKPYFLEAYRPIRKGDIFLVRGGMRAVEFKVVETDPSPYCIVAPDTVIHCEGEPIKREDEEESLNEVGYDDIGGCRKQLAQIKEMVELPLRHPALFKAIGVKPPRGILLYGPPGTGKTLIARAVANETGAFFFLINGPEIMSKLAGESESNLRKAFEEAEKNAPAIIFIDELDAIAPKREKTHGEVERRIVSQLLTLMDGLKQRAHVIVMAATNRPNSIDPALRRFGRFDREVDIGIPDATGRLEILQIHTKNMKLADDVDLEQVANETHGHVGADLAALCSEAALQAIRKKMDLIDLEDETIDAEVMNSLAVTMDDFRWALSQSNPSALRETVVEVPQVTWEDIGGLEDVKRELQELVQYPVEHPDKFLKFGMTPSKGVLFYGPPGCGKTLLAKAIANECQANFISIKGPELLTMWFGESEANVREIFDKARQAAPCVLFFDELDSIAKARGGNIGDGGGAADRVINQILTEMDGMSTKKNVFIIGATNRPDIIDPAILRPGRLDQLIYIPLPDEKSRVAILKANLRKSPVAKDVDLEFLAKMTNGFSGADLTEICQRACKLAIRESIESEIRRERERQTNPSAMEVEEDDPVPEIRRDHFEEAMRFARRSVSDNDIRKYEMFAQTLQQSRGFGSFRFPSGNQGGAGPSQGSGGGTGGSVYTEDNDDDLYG
Protocol: An assay that measures the ATPase activity of p97 and that is amenable to high-throughput screening (HTS) was developed based on the commercially-available “Kinase-Glo” assay format, wherein the ATP hydrolytic activity of p97 is monitored by using luciferase to measure the level of residual ATP in a sample following incubation with p97. Using this assay, circa 16,000 compounds were screened to evaluate their effect on the ATP hydrolysis activity of p97. This effort yielded several candidates that inhibit p97 activity. Among the compounds that were identified, one that was of particular interest was compound 8 (9-(2-nitrovinyl) anthracene shown below:
It was shown that a key feature of compound 8 is that its mode of inhibition is dependent upon the presence of a cysteine at position 522 in the D2 domain of p97.

[1] = tested on: HeLa cell line that stably expresses UbG76V-GFP; experiment: Accumulation of UbG76V-GFP in HeLa cells (fluorescence microscopy); format: cell-based; conditions: 1 h at 37° C., fluorescence microscopy
Protocol: As a control, the same cells were treated with the proteasome inhibitor MG132. In the latter set of experiments, a HeLa cell line that stably expresses UbG76V-GFP was transfected with either wild type (WT), D1 mutant (E305Q), D2 mutant (E578Q) or E305Q, E578Q double mutant (QQ) murine 97-pcDNA4.1 plasmid (0.05 μg/100 μL) in a 96-well plate. After 23 h, the intensity of UbG76V-GFP signal was measured on a Molecular Devices ImageXpress automated fluorescence microscope. […] The direct accumulation of Ub-G76V-GFP caused by compound 2 at 25 μM is 4-fold less than that caused by MG132 at 2 μM. This is likely due to the fact that only fully folded Ub-G76V-GFP should require p97 for degradation by the proteasome.
As a second test of whether compound 8 can inhibit p97 in vivo, it was evaluated whether it can cause accumulation of the UbG76V-GFP reporter. A HeLa cell line that stably expresses UbG76V-GFP was treated with compound 8 for 1 h at 37° C., and was then evaluated by fluorescence microscopy. As a control, the same cells were treated with the proteasome inhibitor MG132. […] The level of GFP fluorescence was quantified in cells treated with compound 8 at different doses and for different periods of time (FIG. 28).

[2] = tested on: HEK293 cells that stably expressed TCR-GFP; experiment: Accumulation of ERAD reporter TCR-alpha-GFP; format: cell-based; conditions: 2 h at 37° C., fluorescence microscopy
Protocol: Since p97 has a well-established role in ERAD, it was also determined whether compound 2 affects the accumulation of an ERAD-reporter, TCR-alpha-GFP. HEK293 cells that stably expressed TCR-GFP were treated with MG132 (see FIG. 19), compound 1 or compound 2 (FIG. 20) at the indicated concentrations for 2 h at 37° C. prior to being imaged by fluorescence microscopy to determine TCR-GFP accumulation. […] It was thus concluded that compound 2 inhibits p97 in cells, resulting in the accumulation of both soluble and insoluble high molecular weight ubiquitin conjugates and UPS substrates whose degradation depends upon p97.
HEK293 cells that stably expressed TCR-GFP were treated with the Velcade (FIG. 30) or compound 8 (FIG. 31) at the indicated concentrations for 2 h at 37° C. prior to being imaged by fluorescence microscopy to quantify TCR-GFP accumulation.

Sequence of wild type murine p97 (Q01853 whole entry): as above

SMILES: CC(C)(C)n1nc(-c2ccccc2)c2c(N)ncnc21 [Compound 1]
- IC50 (wild type murine p97): > 100 µM
- GI50 higher than that of compound 2 across the same cell lines (13 different cell lines): 3 to 18 fold
- GI50 (RL): 21 ± 10 µM
- GI50 (Molt4): 7.4 ± 4.7 µM
- GI50 (PC3): 11 ± 1 µM
- GI50 (HTC116 WT): 10 ± 2 µM
- GI50 (RPMI8226): 1.1 ± 0.7 µM
- GI50 (MDAMB-231): 19 ± 8 µM
- GI50 (HCT116 p53−/−): 12 ± 4 µM
- GI50 (HeLa): 2 ± 1 µM
- accumulation of high molecular weight ubiquitin conjugates, RPMI8226 cells (RPMI8226 cells): not
- GI50 (MCF7): 4 ± 2 µM
- GI50 (CCRF-CEM): 15 ± 5 µM
- GI50 (LNCaP): 38 ± 8 µM
- effect on the decay of Ub-G76V-GFP (Ub-G76V-GFP/HeLa cells; up to 10 μM): no effect
- GI50 (DU145): 18 ± 4 µM
- accumulation of high molecular weight ubiquitin conjugates, HeLa cells (HeLa cells): not
- GI50 293: 92 ± 14 µM

SMILES: O=[N+]([O-])C=Cc1c2ccccc2cc2ccccc12 [Compound 8, 9-(2-nitrovinyl) anthracene]
- GI50 (MRC5-WT): 17 ± 9 µM
- GI50 (MRC5-SV40; Homo sapiens, MRC5, 48 h at 37° C., CellTiter-Glo, read-out: Cell line inhibition of growth GI50 MRC5-SV40): 5 ± 3 µM
- greater sensitivity of SV40-transformed cells than WT cell line (MRC5-SV40; MRC5-SV40 vs MRC5-WT GI50): 3.4 fold
- accumulation of high molecular weight ubiquitin conjugates, RPMI8226 cells (RPMI8226 cells): caused accumulation of high molecular weight ubiquitin conjugates
- K, rate constant of Ub-G76V-GFP degradation (Ub-G76V-GFP/HeLa cells; 0.01 μM): 0.034 min⁻¹
- % K (Ub-G76V-GFP/HeLa cells; 0.01 μM): 89%
- K, rate constant of Ub-G76V-GFP degradation (Ub-G76V-GFP/HeLa cells; 0.04 μM): 0.033 min⁻¹
- % K (Ub-G76V-GFP/HeLa cells; 0.04 μM): 87%
- K, rate constant of Ub-G76V-GFP degradation (Ub-G76V-GFP/HeLa cells; 0.16 μM): 0.032 min⁻¹
- % K (Ub-G76V-GFP/HeLa cells; 0.16 μM): 85%
- K, rate constant of Ub-G76V-GFP degradation (Ub-G76V-GFP/HeLa cells; 0.63 μM): 0.031 min⁻¹
- % K (Ub-G76V-GFP/HeLa cells; 0.63 μM): 81%
- K, rate constant of Ub-G76V-GFP degradation (Ub-G76V-GFP/HeLa cells; 2.5 μM): 0.027 min⁻¹
- % K (Ub-G76V-GFP/HeLa cells; 2.5 μM): 71%
- K, rate constant of Ub-G76V-GFP degradation (Ub-G76V-GFP/HeLa cells; 10 μM): 0.023 min⁻¹
- % K (Ub-G76V-GFP/HeLa cells; 10 μM): 60%
- IC50 (Ub-G76V-GFP/HeLa cells; Homo sapiens, HeLa, 1 h, read-out: IC50 on the decay of Ub-G76V-GFP): 10 ± 4 µM
- inhibition of wild type p97 compared with the C522A-p97 mutant (wild type p97): significantly greater degree
- accumulation of high molecular weight ubiquitin conjugates, HeLa cells (HeLa cells): caused accumulation of high molecular weight ubiquitin conjugates
- accumulation of UbG76V-GFP [1]: caused detectable accumulation of UbG76V-GFP
- accumulation of TCR-alpha-GFP [2]: induced accumulation of the ERAD reporter, TCR-alpha-GFP

— patent US9089572B2, “Inhibitors of p97” (California Institute of Technology, priority 2008, dated 2015)
